Measured values taken from the supplement of paper PMC4862054.

What was measured:
[1] = system: MDA-MB-453; conditions: 72 h
Method in brief: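 Rows with a drug sensitivity score of zero were dropped, and EC50 was taken from the fitted percent-inhibition dose-response curve, censored at the highest concentration. Data were normalised on each plate to vehicle and a positive kill control and checked by Z'-factor. The assay seeded breast cancer cell lines in 20 µl onto 384-well plates pre-loaded with compound in 5 µl medium for 72 h, then added 2.5 µl CellTiter-Blue for 2 h at 37 °C and read fluorescence at 560/590 nm.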

[2] = system: CAL-148; experiment: normalised viability (% of control), CellTiter-Blue; higher = more viable cells (about 100 = DMSO control); conditions: 100 nM; incubation time: 72 h
Method in brief: (§1)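 The reported figure is normalised viability at a single listed concentration of the series. Breast cancer cell lines (20 µl suspension) went onto 384-well plates holding compound in 5 µl medium for 72 h. CellTiter-Blue (2.5 µl, 2 h, 37 °C) was read by fluorescence at 560/590 nm, and each plate was scaled to vehicle at 100 and a positive kill control at 0.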

[3] = system: MDA-MB-453; experiment: as above; conditions: 100 nM; incubation time: 72 h
Method in brief: as §1

[4] = system: BT-474; experiment: normalised viability (% of control), CellTiter-Blue; higher = more viable cells (about 100 = DMSO control); conditions: 100 nM; incubation time: 72 h
Method: (§2)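 DSRT, CellTiter-Blue viability, 72 h incubation. Signal is normalised to DMSO and benzethonium chloride controls. Value is the normalised response at dose 3.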

[5] = system: BT-549; experiment: as above; conditions: 100 nM; incubation time: 72 h
Method: as §2

[6] = system: CAL-120; experiment: as above; conditions: 100 nM; incubation time: 72 h
Method: as §2

[7] = system: CAL-148; experiment: as above; conditions: 10 nM; incubation time: 72 h
Method: as §2

[8] = system: CAL-51; experiment: as above; conditions: 10 nM; incubation time: 72 h
Method: as §2

[9] = system: CAL-85-1; experiment: as above; conditions: 10 nM; incubation time: 72 h
Method: as §2

[10] = system: DU-4475; experiment: as above; conditions: 10 nM; incubation time: 72 h
Method: as §2

[11] = system: HCC1143; experiment: as above; conditions: 100 nM; incubation time: 72 h
Method: as §2

[12] = system: HCC1599; experiment: as above; conditions: 100 nM; incubation time: 72 h
Method: as §2

[13] = system: HCC1937; experiment: as above; conditions: 100 nM; incubation time: 72 h
Method: as §2

[14] = system: HDQ-P1; experiment: as above; conditions: 10 nM; incubation time: 72 h
Method: as §2

[15] = system: Hs578T; experiment: as above; conditions: 100 nM; incubation time: 72 h
Method: as §2

[16] = system: MDA-MB-231; experiment: as above; conditions: 100 nM; incubation time: 72 h
Method: as §2

[17] = system: MDA-MB-436; experiment: as above; conditions: 100 nM; incubation time: 72 h
Method: as §2

[18] = system: MDA-MB-453; experiment: as above; conditions: 10 nM; incubation time: 72 h
Method: as §2

[19] = system: MDA-MB-468; experiment: as above; conditions: 100 nM; incubation time: 72 h
Method: as §2

[20] = system: MFM-223; experiment: as above; conditions: 100 nM; incubation time: 72 h
Method: as §2

[21] = system: SK-BR-3; experiment: as above; conditions: 100 nM; incubation time: 72 h
Method: as §2

[22] = system: CAL-148; experiment: as above; conditions: 300 nM; incubation time: 72 h
Method: (§3)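 DSRT, CellTiter-Blue viability, 72 h incubation. Signal is normalised to DMSO and benzethonium chloride controls. Value is the normalised response at dose 6.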

[23] = system: CAL-51; experiment: as above; conditions: 300 nM; incubation time: 72 h
Method: as §3

[24] = system: CAL-85-1; experiment: as above; conditions: 300 nM; incubation time: 72 h
Method: as §3

[25] = system: DU-4475; experiment: as above; conditions: 300 nM; incubation time: 72 h
Method: as §3

[26] = system: HDQ-P1; experiment: as above; conditions: 300 nM; incubation time: 72 h
Method: as §3

[27] = system: MDA-MB-453; experiment: as above; conditions: 300 nM; incubation time: 72 h
Method: as §3

[28] = system: CAL-148; experiment: as above; conditions: 10000 nM; incubation time: 72 h
Method: (§4)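 DSRT, CellTiter-Blue viability, 72 h incubation. Signal is normalised to DMSO and benzethonium chloride controls. Value is the normalised response at dose 9.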

[29] = system: CAL-51; experiment: as above; conditions: 10000 nM; incubation time: 72 h
Method: as §4

[30] = system: HDQ-P1; experiment: as above; conditions: 10000 nM; incubation time: 72 h
Method: as §4

[31] = system: MDA-MB-453; experiment: as above; conditions: 10000 nM; incubation time: 72 h
Method: as §4

EC50, CellTiter-Blue viability [1] | SMILES | normalised viability [2] | normalised viability [3] | normalised viability [4] | normalised viability [5] | normalised viability [6] | normalised viability [7] | normalised viability [8] | normalised viability [9] | normalised viability [10] | normalised viability [11] | normalised viability [12] | normalised viability [13] | normalised viability [14] | normalised viability [15] | normalised viability [16] | normalised viability [17] | normalised viability [18] | normalised viability [19] | normalised viability [20] | normalised viability [21] | normalised viability [22] | normalised viability [23] | normalised viability [24] | normalised viability [25] | normalised viability [26] | normalised viability [27] | normalised viability [28] | normalised viability [29] | normalised viability [30] | normalised viability [31]
4.24 µM | CN(C)C[C@@H]1CCn2cc(c3ccccc32)C2=C(C(=O)NC2=O)c2cn(c3ccccc23)CCO1 [Ruboxistaurin] | 111% | 93% | 98.7% | 89% | 126% | 112% | 91.8% | 117% | 101% | 128% | 111% | 85.3% | 82.6% | 68.9% | 95.8% | 91.6% | 96.7% | 90.1% | 105% | 82.2% | 99% | 91% | 106% | 82.2% | 48.4% | 104% | 24.3% | 27.4% | 22.5% | 0.78%
2.54 µM | CN1CCN(CCOc2cc(OC3CCOCC3)c3c(Nc4c(Cl)ccc5c4OCO5)ncnc3c2)CC1 [Saracatinib] | 85.3% | 105% | 105% | 112% | 87.7% | 80.7% | 106% | 93.9% | 105% | 84.3% | 108% | 96.2% | 104% | 95.7% | 76.5% | 109% | 105% | 104% | 99.6% | 85.3% | 92.4% | 85.7% | 88.6% | 96.8% | 85.4% | 104% | 62% | 38.4% | 21.9% | 35.6%
1.43 µM | Cn1cncc1[C@@](N)(c1ccc(Cl)cc1)c1ccc2c(c1)c(-c1cccc(Cl)c1)cc(=O)n2C [Tipifarnib] | 45.6% | 73.6% | 102% | 95.3% | 57% | 83.2% | 99.9% | 85.3% | 92.8% | 61.6% | 72.7% | 64.9% | 89.7% | 70.1% | 71.8% | 87.9% | 93% | 96.7% | 70.3% | 57.8% | 44.9% | 60.2% | 64% | 43.9% | 52.5% | 77.2% | 26.7% | 20.4% | 49.6% | 19.9%
